Earlier results in patent US20240285562A1, “USE OF (S)-3-AMINO-4-(DIFLUOROMETHYLENYL) CYCLOPENT-1-ENE-1-CARBOXYLIC ACID IN THE TREATMENT OF MULTIPLE SCLEROSIS” (Ovid Therapeutics Inc., priority 2023, published 2024).
Each block holds one compound with its values, some of them ahead of it.

Key:
[1] = system: autoimmune response in EAE; conditions: oral or parenteral administration, murine EAE
[2] = system: aspartate aminotransferase (Asp-AT)
[3] = system: alanine amidotransferase (Ala-AT)
OAT = biological target: T1, OAT (Homo sapiens, UniProt P04181)
T1 sequence (P04181 36-439 limits assumed): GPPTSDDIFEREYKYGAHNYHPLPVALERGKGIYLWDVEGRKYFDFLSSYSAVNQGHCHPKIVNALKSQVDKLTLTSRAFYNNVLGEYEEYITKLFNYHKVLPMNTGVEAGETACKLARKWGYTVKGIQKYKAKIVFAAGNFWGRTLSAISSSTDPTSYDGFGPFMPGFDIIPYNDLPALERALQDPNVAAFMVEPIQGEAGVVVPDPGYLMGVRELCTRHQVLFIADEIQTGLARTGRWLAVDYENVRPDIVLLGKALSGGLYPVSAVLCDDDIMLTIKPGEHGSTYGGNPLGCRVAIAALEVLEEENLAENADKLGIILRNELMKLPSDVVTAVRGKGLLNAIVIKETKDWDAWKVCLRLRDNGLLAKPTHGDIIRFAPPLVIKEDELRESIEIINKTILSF

SMILES: NCCCC(=O)O [GABA, gamma-aminobutyric acid]
reduction of the damaging autoimmune response [1]: ineffective

SMILES: N[C@H]1C[C@@H](C(=O)O)CC1=C(F)F [CPP-115, (1S,3S)-3-amino+difluoromethylenyl-1-cyclopentanoic acid, reference compound]
inactivation or inhibition of off-target enzyme [2]: not to inactivate or inhibit
inactivation or inhibition of off-target enzyme [3]: not to inactivate or inhibit
Ki (OAT; OAT inactivation): 116 µM

IC50 ([2]; reversible inhibition): > 4000 µM
IC50 ([3]; reversible inhibition): > 4000 µM
times more efficient an inactivator of OAT than CPP-115 (OAT; ratio of kinact/KI versus CPP-115): 9.0 times
SMILES: N[C@H]1C=C(C(=O)O)CC1=C(F)F [(S)-3-amino-4-(difluoromethylenyl)cyclopent-1-ene-1-carboxylic acid]
